Assay results: patent US9822115B2, “Nitrogen containing compounds and their use as antibacterial agents” (WOCKHARDT LIMITED, priority 2014, dated 2017)
≈ marks a conversion by molar mass, not a printed value. Like-named read-outs stand apart in the source and are kept apart here.

Key:
[1] = test system: T1, Class C beta-lactamase, E. coli M50 (CMY/DHA); type: biochemical; settings: read-out: Beta-lactamase enzyme inhibition IC50
T1 construct: no borders, tags or purification printed
Summary of the method: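 Crude enzyme preincubated with inhibitor 10 min at 37 °C, then nitrocefin (100 uM) added for 5 min. Absorbance read at 485 nm; IC50 obtained from sigmoidal dose-response fit of absorbance versus concentration.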

[2] = test system: K. pneumoniae B 88; experiment: Antibacterial activity, MIC by agar dilution (CLSI); type: cell-based; settings: Klebsiella pneumoniae, B88, Table 3
Experimental: (§1) The biological activity of representative compounds according to the invention against various bacterial strains was investigated. In a typical study, overnight grown bacterial cultures were diluted appropriately and inoculated on the agar media containing doubling dilutions of the test compounds. Observations for growth or no growth was performed after 16-20 hours of incubation at 35±2° C. in the ambient air. The overall procedure was performed as per Clinical and Laboratory Standards Institute (CLSI) recommendations, (Clinical and Laboratory Standards Institute (CLSI), Performance Standards for Antimicrobial Susceptibility Testing, 20th Informational Supplement, M07-A9, Volume 32, No. 2, 2012). Molten Mueller Hinton Agar (BD, USA) containing serial dilutions of each antibacterial agent were poured on to the plates and allowed to solidify. Appropriate suspensions from the freshly grown cultures were prepared in normal saline so that about 10^4 CFU/spot of the organism was delivered on to the drug containing agar plates using automated multipoint inoculator (Mast, UK). The plates were incubated in Biochemical oxygen demand (BOD) incubator at 37° C. for 18 hours and then examined for growth.
(§2) Table 3 details the antibacterial activity of representative compound of Formula (I), Sodium salt of (2S,5R)-Sulfuric acid mono-[2-(N′-(4-hydroxyphenyl-acetyl)-hydrazinocarbonyl)-7-oxo-1,6-diaza-bicyclo[3.2.1]oct-6-yl]ester (Compound of Example 1) and Sodium salt of (2S,5R)-Sulfuric acid mono-[2-(N′-(pyridine-2-yl-acetyl)-hydrazinocarbonyl)-7-oxo-1,6-diaza-bicyclo[3.2.1]oct-6-yl] ester (Compound of Example 8), against various Multi Drug Resistant (MDR) Gram-negative bacterial strains.

[3] = test system: P. aeruginosa PAO1; experiment: as above; type: cell-based; settings: Pseudomonas aeruginosa, Table 3
Experimental: as §1, §2

[4] = test system: E. coli NCTC 13353 (CTX-M15, OXA-1); experiment: as above; type: cell-based; settings: Escherichia coli, read-out: MIC
Summary of the method: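 CLSI agar dilution on Mueller Hinton agar containing doubling compound dilutions, inoculated at about 10^4 CFU/spot from fresh cultures. Plates were incubated 18 h at 37 °C in ambient air before growth scoring. MIC is reported in mcg/ml.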

[5] = NCTC13353, Table 2, E. Coli NCTC 13353 (CTX-M15, OXA-1)
[6] = NCTC13353, Table 3, E. coli NCTC 13353

| Compound | IC50 [1] | MIC [2] | MIC [3] | MIC [4, 5] | MIC [4, 6] |
| --- | --- | --- | --- | --- | --- |
| O=C(Cc1ccc(O)cc1)NNC(=O)[C@@H]1CC[C@@H]2CN1C(=O)N2OS(=O)(=O)[O-].[Na+] [Example 1, Sodium Salt of (2S,5R)-Sulfuric Acid mono-[2-(N′-(4-hydroxyphenyl-acetyl)-hydrazinocarbonyl)-7-oxo-1,6-diaza-bicyclo[3.2.1]oct-6-yl]ester] | 5 nM | 0.5 µg/mL | > 32 µg/mL | 0.5 µg/mL | 0.5 µg/mL |
| NCCOc1ccccc1CC(=O)NNC(=O)[C@@H]1CC[C@@H]2CN1C(=O)N2OS(=O)(=O)O [Example 2, (2S,5R)-Sulfuric Acid mono-[2-(N′-{2-[2-(2-amino-ethoxy)-phenyl]-acetyl}-hydrazinocarbonyl)-7-oxo-1,6-diaza-bicyclo[3.2.1]oct-6-yl]ester] | 122 nM | > 32 µg/mL | > 32 µg/mL | 1 µg/mL (≈ 2.19 µM) | 0.5 µg/mL (≈ 1.09 µM) |
